Experimental findings from patent US5565342A (priority 1989, dated 1996) are described below.

Assay [1] deals with RON substance synthetase. Nature of the assay: Inhibition and activation of the enzyme by metal chlorides. It is filed as biochemical, Leuconostoc mesenteroides subsp. dextranicum, BL-75. As to conditions: 1 mM metal chloride; not added = 100; 30 min. Here is the method: A substrate solution comprising sucrose (60 w/v %) and an acetate buffer (0.3M, pH 5.5), which was warmed to 30° C. in advance, was mixed with an enzyme solution (0.5 to 1 U/ml) warmed to 30° C. in an amount 4 times the amount of the substrate solution, and the mixture was sufficiently stirred and the reaction was carried out at 30° C. for 30 minutes. To the reaction mixture a 40 mM of NaOH solution was added in an amount 5 times of the amount of the reaction mixture to stop the reaction. The reaction-stopped mixture was appropriately diluted and reducing sugar was determined as fructose by the Somogyi method [M. Somogyi, J. Biol. Chem., 160, 61 (1945)]. As the control, reducing sugar in the enzyme reaction-stopped mixture treated in the same manner without adding sucrose was determined as fructose, and correction was carried out. The quantity of sucrose participating in the reaction was determined from the quantity of fructose.
The relative activities at the addition of the different metal chlorides in the final concentration of 1 mM were determined by the standard method. The relative value was expressed in percent comparing with the activity without addition of any metal chloride.

In assay [2] the test system is RON substance synthetase. Nature of the assay: Substrate specificity of the enzyme. Format: biochemical, Leuconostoc mesenteroides subsp. dextranicum, BL-75. Particulars: as substrate of the enzyme.

For `[Ca+2].[Cl-].[Cl-]` [CaCl2], the “Relative Activity” value in the assay with RON substance synthetase [1] came to 110%. With `O=C(CO)[C@@H](O)[C@H](O)[C@H](O)CO` [fructose], the “Formation of the RON substance (substrate specificity)” value (shortened to “Formation of the RON substance”) with RON substance synthetase [2] is recorded as “not observed”. On to `[Cl][Mn][Cl]` [MnCl2], for which, in the assay with RON substance synthetase [1], the “Relative Activity” value worked out at 75%. Turning to `OC[C@H]1O[C@@](CO)(O[C@H]2O[C@H](CO)[C@@H](O)[C@H](O)[C@H]2O)[C@@H](O)[C@@H]1O` [sucrose], the “Formation of the RON substance” value with RON substance synthetase [2] is “reacts only with sucrose”. As to `[Cl-].[Cl-].[Zn+2]` [ZnCl2], the “Relative Activity” value in the assay with RON substance synthetase [1] is given as 93%. On the same count and under the same terms, as for `[Cl-].[Cl-].[Co+2]` [CoCl2], the figure is 95%; as for `[Cl][Ni][Cl]` [NiCl2], 98%.

As for `OC[C@H]1O[C@H](OC[C@H]2OC(O)[C@H](O)[C@@H](O)[C@@H]2O)[C@H](O)[C@@H](O)[C@@H]1O` (some centres unmarked) [isomaltose], the “Formation of the RON substance” value in the assay with RON substance synthetase [2] is “not observed”. For `OC[C@H]1OC(O)[C@H](O)[C@@H](O)[C@@H]1O` (some centres unmarked) [glucose], the “Formation of the RON substance” value in the assay with RON substance synthetase [2] is given as “not observed”. For the compound `OC[C@H]1O[C@H](O[C@H]2[C@H](O)[C@@H](O)C(O)O[C@@H]2CO)[C@H](O)[C@@H](O)[C@@H]1O` (mixture of isomers) [maltose], in the assay with RON substance synthetase [2], the “Formation of the RON substance” value is listed as “not observed”. Take `[Cl-].[Cl-].[Mg+2]` [MgCl2]: in the assay on RON substance synthetase [1], the “Relative Activity” value was 78%.

Consider `[Cl][Cu][Cl]` [CuCl2], for which the “Relative Activity” value in the assay with RON substance synthetase [1] was determined as 50%. The same measure, in the same setting: as for `[Cl][Fe][Cl]` [FeCl2], the figure is 103%; as for `[Cl][Fe]([Cl])[Cl]` [FeCl3], 82%.
